pIC50: −log10 of the molar value.
These molecules were tested on CAL51 cell proliferation (assay: Cell Titer Glo Proliferation Assay (CAL51)). Conditions: Homo sapiens, CAL-51; CAL51 cell proliferation, 72 h, Cell Titer Glo luminescence; read-out: Act. Level.
Assay type: cell-based, human
How it was run: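 Viability is measured by CellTiter-Glo luminescence after 72 h of compound exposure. CAL51 cells were seeded in growth medium with 10% FBS and 2 mM glutamine, cultured overnight, then dosed with compound dilutions, vehicle held at 0.2% DMSO.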
Molecule CNC(=O)c1ccc(Nc2nc(O[C@H]3CCOC3)c3c(-c4ccc5nc(C)oc5c4)c[nH]c3n2)c(C)c1 [Example 133, (S)-N,3-dimethyl-4-(5-(2-methylbenzo[d]oxazol-6-yl)-4-(tetrahydrofuran-3-yloxy)-7H-pyrrolo[2,3-d]pyrimidin-2-ylamino)benzamide] has a pIC50 greater than 7.00. CNC(=O)c1ccc(Nc2nc(OC3CCOCC3)c3c(-c4ccc5nc(C)oc5c4)c[nH]c3n2)c(OC)c1 [Example 90, 3-methoxy-N-methyl-4-(5-(2-methylbenzo[d]oxazol-6-yl)-4-(tetrahydro-2H-pyran-4-yloxy)-7H-pyrrolo[2,3-d]pyrimidin-2-ylamino)benzamide] was tested, and the pIC50 was greater than 7.00. In the case of CNC(=O)c1ccc(Nc2nc(OC(C)(C)C)c3c(-c4ccc5nc(C)oc5c4)c[nH]c3n2)c(OC)c1 [Example 246, 4-(4-tert-butoxy-5-(2-methylbenzo[d]oxazol-6-yl)-7H-pyrrolo[2,3-d]pyrimidin-2-ylamino)-3-methoxy-N-methylbenzamide], the pIC50 was greater than 7.00. CCOc1nc2ccc(-c3c[nH]c4nc(Nc5ccc(C(=O)NC)cc5OC)nc(OC5CCCC5)c34)cc2o1 [Example 293, 4-(4-(cyclopentyloxy)-5-(2-ethoxybenzo[d]oxazol-6-yl)-7H-pyrrolo[2,3-d]pyrimidin-2-ylamino)-3-methoxy-N-methylbenzamide] was tested, and the pIC50 was 6.40 to 7.00. CNC(=O)c1ccc(Nc2nc(OC3CCOCC3)c3c(-c4ccnc(OC)c4)c[nH]c3n2)c(OC)c1 [Example 143, 3-methoxy-4-(5-(2-methoxypyridin-4-yl)-4-(tetrahydro-2H-pyran-4-yloxy)-7H-pyrrolo[2,3-d]pyrimidin-2-ylamino)-N-methylbenzamide] showed a pIC50 greater than 7.00.
